For data set [1], the system named is preterm infants. Briefly: Randomized placebo controlled study: number of hospitalization days to discharge. The format is in vivo, human. The procedure: A Multi-center, two arms, randomized, double-blinded placebo controlled study was conducted to evaluate the effect of insulin-enriched infant formula on preterm infants. In this study, the population of infants included also babies having extremely low birth weight (inclusion criteria included babies weighing over 750 grams). The insulin was given at a concentration range which is mimicking colostrums concentration (at 400 μU/ml. The study primary goal was to determine whether insulin supplement to the basic preterm oral formula enhances gastrointestinal maturation. The gastrointestinal maturation was evaluated by the ability of the premature infants to achieve complete enteral feeds (150-160 ml/kg/day). The infants were hospitalized in the neonatal hospital ward in the same manner as preterm infants whose parents elected not to participate in the study. The infants were randomly assigned to one of two treatment groups: the study product-InsuMealTM as a test group and Placebo supplement as a control group. […] From study day 1, the infants in the test group received the InsuMealTM additive mixed with the ready to feed (RTF) preterm […] formula and the control group received a placebo supplement mixed with the same RTF preterm […] formula. Infant maturation and growth was further assessed by the number of hospitalization days required until the preterm infant could be discharged.

For data set [2], the system named is preterm infants. The settings on record: oral, 4 to 28 days of age, 4 U/kg/day; cited from earlier work.
In data set [3] the test system is preterm infants. Briefly: Randomized placebo controlled study: gastrointestinal maturation (days to complete enteral feeding). The format is in vivo, human. The settings on record: all infants; control 7.9; P-value=0.2085. The procedure:
A Multi-center, two arms, randomized, double-blinded placebo controlled study was conducted to evaluate the effect of insulin-enriched infant formula on preterm infants. In this study, the population of infants included also babies having extremely low birth weight (inclusion criteria included babies weighing over 750 grams). The insulin was given at a concentration range which is mimicking colostrums concentration (at 400 μU/ml. The study primary goal was to determine whether insulin supplement to the basic preterm oral formula enhances gastrointestinal maturation. The gastrointestinal maturation was evaluated by the ability of the premature infants to achieve complete enteral feeds (150-160 ml/kg/day). The infants were hospitalized in the neonatal hospital ward in the same manner as preterm infants whose parents elected not to participate in the study. The infants were randomly assigned to one of two treatment groups: the study product-InsuMealTM as a test group and Placebo supplement as a control group. The parents, the medical team treating the infants and the study monitor were blinded to the treatment arm. From study day 1, the infants in the test group received the InsuMealTM additive mixed with the ready to feed (RTF) preterm […] formula and the control group received a placebo supplement mixed with the same RTF preterm […] formula. […]

Data set [4] relates to low birth weight infants. Briefly: Phase I open label single group clinical study of insulin enriched formula: growth in weight, length, head circumference. The format is in vivo, human. As to conditions: at 6 months; CDC growth tables. The procedure: The effect of insulin enriched formula on low birth weight full term infant was examined. Inclusion criteria for participating in the study included: healthy infants 34-42 weeks gestation (“term born infants”); birth weight above 1,650 g, typically between 1750 gram and 2500 gram; no major congenital malformation or any other illness sign; chronological age under 240 hours; mother is not willing to breastfeed the baby during the study period and signed an informed consent. Infant with a high index of suspect for infection before enrolment, maternal diabetes, and medications given until day 1 of the study were excluded. Observed results regarding weight, length, and head circumference were compared to expected values which were obtained from the CDC growth reference tables (ibid) according to the infants' gender, gestational age and percentile of birth weight (BW). Interpolation or extrapolation was used to determine the percentile and the expected gain of each infant. The expected values are specific to the percentile measure at birth. The percentile of each BW was evaluated according to the gender, gestational age and multiplicity (singleton or twin) using published tables for Israel (Dolberg S. et al., IMAJ, 7, 2005, 311-314). No such data were available with respect to the percentiles of length and of head circumference. It was therefore assumed that the BW percentile of each infant is applicable to each of the other two growth measures. […] The infants' gender, family origin, gestational age at birth, maternal medications, maternal age, chronic diseases in the family and the infant's condition upon enrollment were recorded. […] During the study, the infant's weight, length, head circumference, glucose blood levels, blood count, blood fat, blood chemistry, blood amino acids, insulin antibodies, and serum levels were recorder, as well as food consumption, vomiting, regurgitation and stools frequency were measured and assessed. The possible effect of the insulin enriched formula on growth was evaluated with respect to gain in weight, length, and head circumference. […]

The next data set has as its system newborn miniature pigs. As to conditions: oral administration of 85 mU/ml; cited from earlier work.
Data set [5] concerns low birth weight infants. Briefly: Clinical studies: safety / side effects of insulin enriched formula. The format is in vivo, human. How it is done: Phase I, multi center, non-randomized, open label, single group study to assess the safety of insulin enriched formula on low birth weight infants was conducted in Rabin Medical Center and Laniado Hospital, Israel. The possible effect of the insulin enriched formula on growth of low birth weight infants, born on term (at least 34 weeks of gestation) was also examined in this study. Parents of eligible infants, who met the study criteria, were invited to participate in the study following signing on Informed Consent Form (ICF). From study day 1, the infants received the insulin enriched infant formula ([…], Israel). They were fed with the formula for the first 4 months without the addition of complementary feed. The infants' gender, family origin, gestational age at birth, maternal medications, maternal age, chronic diseases in the family and the infant's condition upon enrollment were recorded. […] At study day 1 and 2, and at 1, 4, 8, 12, 16 and 24 weeks the parents of the infant were asked to come to the neonatal ward for follow up examinations. During the study, the infant's weight, length, head circumference, glucose blood levels, blood count, blood fat, blood chemistry, blood amino acids, insulin antibodies, and serum levels were recorder, as well as food consumption, vomiting, regurgitation and stools frequency were measured and assessed. Infants were to be withdrawn from the study if any serious adverse event or any deterioration in the infant clinical condition had occurred. They were followed up on possible side effects and efficacy measures until 6 months of age. […] A multicenter, double blind, randomized study for studying the effect of the insulin enriched infant formula on the growth of low weight infants was planned to take place in Israel in 2005 (headed by Prof Sirota, Schneider Hospital). Due to low recruitment rate (only 8 premature infants), the study was terminated.

“Also recorded” adds a separate entry of the source.

As for “insulin: polypeptide hormone; human insulin administered orally to infants, within infant formula”, in the data set on preterm infants [1] (all infants, control 33.6, P-value=0.2192), the “Number of days to discharge, Mean” value is given as 28.8 days. In the data set with preterm infants [1] (infant birth weight < 1300 gr, control 47.0, P value=0.0447), the “Number of days to discharge, Mean” value was found to be 35.8 days. In the data set with preterm infants [2], the “Hypoglycaemia or other adverse effects” value is listed as “without inducing hypoglycaemia or other adverse effects” and the Lactase activity result was “increased lactase activity”. The “Number of days to achieve complete enteral feeding (>=150 ml/Kg/day), Mean” value in the data set with preterm infants [3] turned out to be 6.4 days. In the data set with low birth weight infants [4], the “Effect on head circumference relative to the expected growth” value is 17.6%, the “Effect on length relative to the expected growth” value worked out at 8.1% and the “Effect on weight relative to the expected growth” value was 18.1%. The “Intestine ileal mass and lactase activity” value in the data set on newborn miniature pigs was “increased”. Besides, the Adverse events entry in the data set with low birth weight infants [5] (follow up to 6 months) is listed as “No deleterious effects; also recorded: no adverse events were observed”. In the data set with low birth weight infants [5] (human, in vivo), the Anti-insulin antibodies entry is given as “did not stimulate the production of anti-insulin antibodies” and the Hypoglycemia entry was “did not cause hypoglycemia”.

Values taken from patent US20150086622A1, “GROWTH ENHANCEMENT OF INFANTS” (NUTRINIA LTD., priority 2012, published 2015).
